Key:
[1] = test system: Mus musculus; assay: Decrease in LDL level in human ApoB100/CETP transgenic mouse at 10 mg/kg, po after 6 weeks relative to control; type: functional; design: scale not given: the % may be the effect or the level left
[2] = test system: Mus musculus; assay: Decrease in triglycerides level in human ApoB100/CETP transgenic mouse at 20 mg/kg, po after 6 weeks relative to control; type: functional; design: scale not given: the % may be the effect or the level left
[3] = test system: Mus musculus; assay: Decrease in LDL level in human ApoB100/CETP transgenic mouse at 20 mg/kg, po after 6 weeks relative to control; type: functional; design: scale not given: the % may be the effect or the level left
[4] = test system: Mus musculus; assay: Decrease in HbA1c level in human ApoB100/CETP transgenic mouse at 5 mg/kg, po after 6 weeks relative to control; type: functional; design: scale not given: the % may be the effect or the level left
[5] = target: T1, Peroxisome proliferator-activated receptor alpha (Homo sapiens, UniProt Q07869); assay: Activity at human liver PPAR alpha expressed in HEK293 cells by PPAR-GAL4 transactivation assay; type: cell-based
T1 sequence (Q07869 whole entry): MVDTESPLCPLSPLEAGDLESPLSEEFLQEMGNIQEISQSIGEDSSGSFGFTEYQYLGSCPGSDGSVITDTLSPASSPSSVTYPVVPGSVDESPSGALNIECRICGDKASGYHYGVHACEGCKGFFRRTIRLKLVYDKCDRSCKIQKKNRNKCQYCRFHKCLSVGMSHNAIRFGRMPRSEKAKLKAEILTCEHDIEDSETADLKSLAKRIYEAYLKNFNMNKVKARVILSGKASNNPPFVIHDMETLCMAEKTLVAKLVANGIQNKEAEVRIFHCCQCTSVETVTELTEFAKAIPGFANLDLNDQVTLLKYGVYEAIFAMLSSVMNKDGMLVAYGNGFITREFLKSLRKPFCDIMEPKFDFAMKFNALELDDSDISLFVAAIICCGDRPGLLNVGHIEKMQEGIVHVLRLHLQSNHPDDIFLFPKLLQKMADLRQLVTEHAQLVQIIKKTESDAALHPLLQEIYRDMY

EC50 [5]: > 10 µM
SMILES: O=C(O)COc1ccc(SCC=C(c2ccc(Br)cc2)c2ccc(Br)cc2)cc1Cl
Activity [1]: 12% | Activity [2]: 5% | Activity [3]: 35% | Activity [4]: 4%

Source: ChEMBL document CHEMBL1142981, “Identification and synthesis of a novel selective partial PPARdelta agonist with full efficacy on lipid metabolism in vitro and in vivo” (J Med Chem, 2007)
